Laboratory results from ChEMBL document CHEMBL4145442, “Novel LCK/FMS inhibitors based on phenoxypyrimidine scaffold as potential treatment for inflammatory disorders” (Eur J Med Chem, 2017).

Key:
[1] = target: T1, Tyrosine-protein kinase Lck (Homo sapiens, UniProt P06239); assay: Inhibition of LCK (unknown origin) assessed as remaining activity at 3.33 x 10^-6 M after 120 mins in presence of 33P-ATP (reference value: […]% to […]%); conditions: at 3.33 µM
Target sequence in this assay (P06239 2-509 limits assumed): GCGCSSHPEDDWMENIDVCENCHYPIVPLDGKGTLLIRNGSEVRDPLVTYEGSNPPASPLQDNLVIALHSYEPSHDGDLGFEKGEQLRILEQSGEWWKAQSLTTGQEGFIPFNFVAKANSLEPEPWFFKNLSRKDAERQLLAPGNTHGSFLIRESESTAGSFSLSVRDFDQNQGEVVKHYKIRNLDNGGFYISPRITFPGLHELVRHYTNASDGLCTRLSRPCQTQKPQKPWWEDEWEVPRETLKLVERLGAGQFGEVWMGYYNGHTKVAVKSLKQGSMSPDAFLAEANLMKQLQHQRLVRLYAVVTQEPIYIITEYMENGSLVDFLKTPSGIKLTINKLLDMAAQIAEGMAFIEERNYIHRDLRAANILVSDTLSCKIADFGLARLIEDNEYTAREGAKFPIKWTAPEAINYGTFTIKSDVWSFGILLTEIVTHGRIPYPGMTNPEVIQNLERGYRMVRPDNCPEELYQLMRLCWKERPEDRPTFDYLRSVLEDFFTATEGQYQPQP

[2] = target: T1, Tyrosine-protein kinase Lck; assay: Inhibition of LCK (unknown origin) assessed as remaining activity at […] x 10^-6 M after 120 mins in presence of 33P-ATP (reference value: […]% to […]%)
Target sequence in this assay (P06239 2-509 limits assumed): as above

[3] = target: T1, Tyrosine-protein kinase Lck; assay: Inhibition of LCK (unknown origin) assessed as remaining activity at 3.7 x 10^-7 M after 120 mins in presence of 33P-ATP (reference value: […]% to […]%); conditions: at 0.37 µM
Target sequence in this assay (P06239 2-509 limits assumed): as above

[4] = target: T1, Tyrosine-protein kinase Lck; assay: Inhibition of LCK (unknown origin) assessed as remaining activity at 1 x 10^-5 M after 120 mins in presence of 33P-ATP (reference value: […]% to […]%); conditions: at 10 µM
Target sequence in this assay (P06239 2-509 limits assumed): as above

[5] = target: T1, Tyrosine-protein kinase Lck; assay: Inhibition of LCK (unknown origin) assessed as remaining activity at 3 x 10^-5 M after 120 mins in presence of 33P-ATP (reference value: […]% to […]%); conditions: at 30 µM
Target sequence in this assay (P06239 2-509 limits assumed): as above

[6] = target: T1, Tyrosine-protein kinase Lck; assay: Inhibition of LCK (unknown origin) after 120 mins in presence of 33P-ATP
Target sequence in this assay (P06239 whole entry): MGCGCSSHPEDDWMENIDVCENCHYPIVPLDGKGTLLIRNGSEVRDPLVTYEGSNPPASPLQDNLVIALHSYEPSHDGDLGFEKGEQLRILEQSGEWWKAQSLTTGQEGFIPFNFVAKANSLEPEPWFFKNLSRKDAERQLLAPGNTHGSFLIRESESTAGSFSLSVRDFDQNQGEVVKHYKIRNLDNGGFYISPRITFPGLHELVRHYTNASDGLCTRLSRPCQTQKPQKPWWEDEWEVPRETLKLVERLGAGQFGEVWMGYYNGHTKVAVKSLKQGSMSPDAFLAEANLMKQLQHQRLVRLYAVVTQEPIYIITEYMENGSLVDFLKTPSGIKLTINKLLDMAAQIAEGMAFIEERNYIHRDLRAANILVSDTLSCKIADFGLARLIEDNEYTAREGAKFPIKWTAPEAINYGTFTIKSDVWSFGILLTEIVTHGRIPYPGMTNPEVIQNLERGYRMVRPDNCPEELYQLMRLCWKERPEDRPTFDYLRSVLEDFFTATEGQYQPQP

[7] = Cytotoxicity against mouse RAW264.7 cells after 4 hrs by MTT assay; format: cell-based; conditions: mouse, RAW264.7 cells
[8] = system: RAW264.7; assay: Inhibition of LPS-induced NO production in mouse RAW264.7 cells after 24 hrs by Griess assay; format: functional, cell-based; conditions: RAW264.7, 24 h
[9] = target: Macrophage colony-stimulating factor 1 receptor (Homo sapiens, UniProt P07333); assay: Inhibition of FMS (unknown origin) after 120 mins in presence of 33P-ATP
Chain of Macrophage colony-stimulating factor 1 receptor (P07333 whole entry): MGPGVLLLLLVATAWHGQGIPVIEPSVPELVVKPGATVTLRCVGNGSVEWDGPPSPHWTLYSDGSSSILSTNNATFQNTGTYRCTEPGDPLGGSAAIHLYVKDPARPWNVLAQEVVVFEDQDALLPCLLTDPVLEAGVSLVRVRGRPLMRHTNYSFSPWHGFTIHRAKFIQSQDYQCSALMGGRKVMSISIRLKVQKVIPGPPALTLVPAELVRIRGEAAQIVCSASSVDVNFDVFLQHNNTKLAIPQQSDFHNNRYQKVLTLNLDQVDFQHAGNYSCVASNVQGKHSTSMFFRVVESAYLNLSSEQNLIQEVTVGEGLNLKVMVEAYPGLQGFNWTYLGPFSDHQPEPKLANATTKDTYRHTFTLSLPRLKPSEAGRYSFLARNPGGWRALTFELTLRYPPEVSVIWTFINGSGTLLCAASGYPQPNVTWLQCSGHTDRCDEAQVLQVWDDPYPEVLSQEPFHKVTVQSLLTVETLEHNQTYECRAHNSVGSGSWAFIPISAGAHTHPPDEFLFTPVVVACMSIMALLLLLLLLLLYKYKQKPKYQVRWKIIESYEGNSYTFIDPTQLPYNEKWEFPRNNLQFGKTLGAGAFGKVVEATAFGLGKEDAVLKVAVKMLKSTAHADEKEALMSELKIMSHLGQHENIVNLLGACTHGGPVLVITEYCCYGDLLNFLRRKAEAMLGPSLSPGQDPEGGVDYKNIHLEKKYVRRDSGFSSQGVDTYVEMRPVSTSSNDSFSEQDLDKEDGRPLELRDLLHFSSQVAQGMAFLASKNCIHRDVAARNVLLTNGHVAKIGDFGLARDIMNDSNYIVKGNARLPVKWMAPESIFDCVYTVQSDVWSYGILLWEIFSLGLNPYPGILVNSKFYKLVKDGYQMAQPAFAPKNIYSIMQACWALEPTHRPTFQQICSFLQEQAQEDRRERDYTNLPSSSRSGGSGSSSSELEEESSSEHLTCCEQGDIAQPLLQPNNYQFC

COc1ccccc1NC(=O)Nc1cnc(Nc2ccc(N3CCOCC3)cc2)nc1Oc1ccc(C)cc1OC
Activity [1]: 54.2 to 56%
Activity [2]: 82.2 to 82.9%
Activity [3]: 97.2 to 97.4%
Activity [4]: 33.8 to 33.9%
Activity [5]: 35.9 to 36.2%
IC50 [6]: 5.48 µM

COc1cc(Nc2ncc(NC(=O)Nc3c(Cl)cccc3Cl)c(Oc3ccc(C)cc3OC)n2)cc(OC)c1
Activity [1]: 85.2 to 88.2%
Activity [2]: 94 to 95.5%
Activity [3]: 93.7 to 96%
Activity [4]: 72.6 to 81.8%
Activity [5]: 61.5 to 61.7%
IC50 [6]: 58.4 µM

COc1cc(C)ccc1Oc1nc(Nc2ccc(N3CCOCC3)cc2)ncc1NCc1cccc(OC(F)(F)F)c1
Activity [1]: 68.8 to 76.6%
Activity [2]: 83.5 to 91.3%
Activity [3]: 92.7 to 92.9%
Activity [4]: 61.3 to 65.9%
Activity [5]: 44.9 to 45.8%
IC50 [6]: 22.1 µM

COc1cc(NC(=O)Nc2cnc(Nc3ccc(N4CCOCC4)cc3)nc2Oc2cccc(OC)c2)cc(OC)c1
Activity [1]: 57.6 to 66.5%
Activity [2]: 64.7 to 71%
Activity [3]: 78.7 to 86.2%
Activity [4]: 42.1 to 49.3%
Activity [5]: 62.1 to 63.2%
IC50 [6]: 7.97 µM

COc1cc(OC)cc(C(=O)Nc2cnc(Nc3ccc(N4CCOCC4)cc3)nc2Oc2ccc(C)cc2OC)c1
Activity [1]: 67.3 to 72.8%
Activity [2]: 86.7 to 89%
Activity [3]: 99.1 to 99.3%
Activity [4]: 46.5 to 47%
Activity [5]: 39 to 39.6%
IC50 [6]: 10.3 µM

COc1cc(C)ccc1Oc1nc(Nc2ccc(N3CCOCC3)cc2)ncc1NC(=O)Nc1cc(Cl)cc(Cl)c1
Activity [1]: 80.2 to 80.7%
Activity [2]: 90.9 to 97.7%
Activity [3]: 98.6 to 101%
Activity [4]: 70.1 to 74.8%
Activity [5]: 65.4 to 70%
IC50 [6]: > 100 µM

COc1cc(C)ccc1Oc1nc(Nc2ccc(N3CCOCC3)cc2)ncc1/N=C/c1ccc(Cl)cc1
Activity [1]: 14.7%
Activity [2]: 19.1%
IC80 at 4 h [7]: > 6 µM
Activity [3]: 38.2%
Activity [4]: 10.6%
Activity [5]: 16.8%
IC50 [8]: > 5 µM
IC50 [6]: 0.054 µM

COc1cc(NC(=O)Nc2cnc(Nc3cc(OC)cc(OC)c3)nc2Oc2ccc(C)cc2OC)cc(OC)c1
Activity [1]: 90.1 to 95.8%
Activity [2]: 101 to 106%
Activity [3]: 103 to 108%
Activity [4]: 77.3 to 82%
Activity [5]: 60.4 to 61.1%
IC50 [6]: 41.4 µM

COc1cc(C)ccc1Oc1nc(Nc2ccc(N3CCOCC3)cc2)ncc1NCc1cc(C(F)(F)F)cc(C(F)(F)F)c1
Activity [1]: 66.6 to 71%
Activity [2]: 88.1 to 91.2%
Activity [3]: 104%
Activity [4]: 55.1 to 58.1%
Activity [5]: 41.1 to 41.7%
IC50 [6]: 11.6 µM

COc1cc(C)ccc1Oc1nc(Nc2ccc(N3CCOCC3)cc2)ncc1NC(=O)Nc1cc(C(F)(F)F)cc(C(F)(F)F)c1
Activity [1]: 91 to 91.3%
Activity [2]: 96 to 98%
Activity [3]: 95.3 to 99.2%
Activity [4]: 89.7 to 95.1%
Activity [5]: 83.5 to 89.8%
IC50 [6]: > 100 µM

COc1cc(C)ccc1Oc1nc(Nc2ccc(N3CCOCC3)cc2)ncc1/N=C/c1cc(Cl)cc(Cl)c1
Activity [1]: 32.8 to 33.6%
Activity [2]: 26.7 to 26.9%
IC80 at 4 h [7]: 0.987 µM
Activity [3]: 35.8 to 36.1%
Activity [4]: 37.1%
Activity [5]: 38.9 to 40.7%
IC50 [8]: > 1 µM
IC50 [6]: 0.0065 µM

COc1cc(NC(=O)Nc2cnc(Nc3ccc(N4CCOCC4)cc3)nc2Oc2ccc(C(F)(F)F)cc2)cc(OC)c1
Activity [1]: 83.8 to 90.7%
Activity [2]: 89.3 to 89.9%
Activity [3]: 96 to 100%
Activity [4]: 78.1 to 84.5%
Activity [5]: 74.2 to 74.8%
IC50 [6]: > 100 µM

COc1cc(C)ccc1Oc1nc(Nc2ccc(N3CCOCC3)cc2)ncc1/N=C/c1cccc(OC(C)C)c1
Activity [1]: 20 to 24.3%
Activity [2]: 27.6 to 29.2%
IC80 at 4 h [7]: > 6 µM
Activity [3]: 37.5 to 37.9%
Activity [4]: 19.8 to 20.8%
Activity [5]: 12.4 to 16.2%
IC50 [8]: > 5 µM
IC50 [6]: 0.039 µM

COc1ccc(OC)c(/C=N/c2cnc(Nc3ccc(N4CCOCC4)cc3)nc2Oc2ccc(C)cc2OC)c1
Activity [1]: 12.8 to 13.1%
Activity [2]: 19.9 to 21.8%
IC80 at 4 h [7]: > 1 µM
Activity [3]: 38.7 to 38.9%
Activity [4]: 12.5 to 14.4%
Activity [5]: 8.37 to 10.1%
IC50 [8]: > 1 µM
IC50 [6]: 0.11 µM

C/C(=N/N)NCCCC[C@H](N)C(=O)O
IC50 [8]: 28.3 µM

COc1cc(Nc2ncc(NC(=O)c3cc(OC)cc(OC)c3)c(Oc3ccc(C)cc3OC)n2)cc(OC)c1
Activity [1]: 100 to 101%
Activity [2]: 99.6 to 102%
Activity [3]: 98.3 to 103%
Activity [4]: 95.7 to 97.5%
Activity [5]: 92.3 to 96.8%
IC50 [6]: > 100 µM

COc1cc(C)ccc1Oc1nc(Nc2ccc(N3CCOCC3)cc2)ncc1/N=C/c1ccccc1Cl
Activity [1]: 13.4 to 15.1%
Activity [2]: 26.9 to 29.3%
IC80 at 4 h [7]: > 1 µM
Activity [3]: 42.5 to 42.8%
Activity [4]: 11.3 to 11.5%
Activity [5]: 6.29 to 7.37%
IC50 [8]: > 1 µM
IC50 [6]: 0.225 µM

COc1cc(C)ccc1Oc1nc(Nc2ccc(N3CCOCC3)cc2)ncc1NCc1ccc(OC(F)(F)F)cc1
Activity [1]: 45 to 47.1%
Activity [2]: 59.5 to 61.6%
Activity [3]: 84.9 to 85.4%
Activity [4]: 43.7 to 45.1%
Activity [5]: 21.3 to 22.5%
IC50 [6]: 3.3 µM

COc1cc(C)ccc1Oc1nc(Nc2ccc(N3CCOCC3)cc2)ncc1/N=C/c1cc(C(F)(F)F)cc(C(F)(F)F)c1
Activity [1]: 24.7 to 27.4%
Activity [2]: 19.2 to 20.1%
Activity [3]: 39.7 to 40.7%
Activity [4]: 55.5 to 56.8%
Activity [5]: 24.1 to 28.5%
IC50 [6]: 0.006 µM

COc1ccc(NC(=O)Nc2cnc(Nc3cc(OC)cc(OC)c3)nc2Oc2ccc(C)cc2OC)cc1
Activity [1]: 96.5 to 99.7%
Activity [2]: 98 to 102%
Activity [3]: 96.3 to 102%
Activity [4]: 92.4 to 97.2%
Activity [5]: 90.7 to 95.4%
IC50 [6]: > 100 µM

COc1cc(C)ccc1Oc1nc(Nc2ccc(N3CCOCC3)cc2)ncc1/N=C/c1cccc(Cl)c1
Activity [1]: 15.3 to 16.8%
Activity [2]: 19.6 to 23.2%
IC80 at 4 h [7]: > 1 µM
Activity [3]: 32.6 to 35.6%
Activity [4]: 11.3 to 14.9%
Activity [5]: 28.6 to 36.9%
IC50 [8]: > 1 µM
IC50 [6]: 0.062 µM

COc1cc(C)ccc1Oc1nc(Nc2ccc(N3CCOCC3)cc2)ncc1/N=C/c1cccc(OC(F)(F)F)c1
Activity [1]: 41.1 to 43.7%
Activity [2]: 26.8 to 27.9%
IC80 at 4 h [7]: < 5 µM
Activity [3]: 39.2 to 39.8%
Activity [4]: 49 to 54.7%
Activity [5]: 41.7 to 50.1%
IC50 [8]: > 20 µM
IC50 [6]: 0.0335 µM

COc1cc(C)ccc1Oc1nc(Nc2ccc(N3CCOCC3)cc2)ncc1NCc1ccc(Cl)cc1
Activity [1]: 11.2 to 11.3%
Activity [2]: 20 to 20.2%
Activity [3]: 43.1 to 46.1%
Activity [4]: 7.08 to 7.66%
Activity [5]: 2.49 to 2.9%
IC50 [6]: 0.312 µM

COc1cc(NC(=O)Nc2cnc(Nc3ccc(N4CCOCC4)cc3)nc2Oc2ccc(F)cc2)cc(OC)c1
Activity [1]: 77.8 to 81.3%
Activity [2]: 84 to 87.5%
Activity [3]: 83.2 to 90.3%
Activity [4]: 68.9 to 70.1%
Activity [5]: 52.5 to 61.6%
IC50 [6]: 71.1 µM

COc1cc(C)ccc1Oc1nc(Nc2ccc(N3CCOCC3)cc2)ncc1NC(=O)Nc1c(Cl)cccc1Cl
Activity [1]: 75.6 to 81.8%
Activity [2]: 86.8 to 89.4%
Activity [3]: 93.2 to 97.7%
Activity [4]: 58.3 to 62.7%
Activity [5]: 34.8 to 38.1%
IC50 [6]: 17.4 µM

COc1cc(/C=N/c2cnc(Nc3ccc(N4CCOCC4)cc3)nc2Oc2cccc(OC)c2)cc(OC)c1
Activity [1]: 34.8 to 36.1%
Activity [2]: 52.6 to 55.2%
Activity [3]: 74.3 to 74.7%
Activity [4]: 25.4 to 28.1%
Activity [5]: 24 to 26.5%
IC50 [9]: 0.0086 µM
IC50 [6]: 1.86 µM
